Our source for the IC50 values is patent US20250042853A1, “BICYCLIC COMPOUND AND APPLICATION THEREOF” (BETTA PHARMACEUTICALS CO., LTD, priority 2021, published 2025).

For orientation: IC50 means the point on the concentration scale where inhibition reaches its midpoint. Lower therefore signals greater potency in that assay.

One experiment concerns VEGFA. In words: VEGFA ELISA assay (IC50). In kind it is cell-based. The conditions noted are these: 786-O cells, 24 h, VEGFA in culture supernatant by ELISA; class symbols. How it is done:
786-O cells in the logarithmic growth phase were inoculated into a 96-well plate at a cell concentration of 65,000 cells per ml of culture liquid, 180 μL per well. The compounds were diluted to the corresponding concentrations, and 20 μL of compound solutions of various concentrations were added to the corresponding cell wells, so that the final concentrations of the compounds were 1.5 nM, 4.6 nM, 13.7 nM, 41.2 nM, 123.5 nM, 370.4 nM, 1111.1 nM, 3333.3 nM, and 10000 nM, respectively. After culturing for 24 h, the cell culture supernatant was collected and the VEGFA concentration was determined using an ELISA kit (purchased from Abeam). Finally, the reaction was terminated and the absorbance value of each well was measured at a wavelength of 450 nm using an ELISA reader. The IC50 values were calculated by GraphPadPrism. CellTiter-Glo reagent was used to measure cell viability.
For orientation: An ELISA detects its analyte on a solid surface through an enzyme-linked reagent.
Turning to `CS(=O)(=NC#N)c1cn(-c2ccc(F)c(C#N)c2)c2c1[C@H](O)C(F)(F)CC2` (stereo partly drawn) [Example 18, N—(((S)-1-(3-cyano-4-fluorophenyl)-5,5-difluoro-4-hydroxyl-4,5,6,7-tetrahydro-1H-indol-3-yl)(methyl)(oxo)-16-sulfino)cyanamide], the IC50 is ≤ 500 nM.

The same experiment, now with this note: Homo sapiens, 786-0; 786-O cells, 24 h, VEGFA in culture supernatant by ELISA.
In turn, `OC1c2c(C(F)(F)F)cn(-c3ccc(F)c(CF)c3)c2CCC1(F)F` (stereo not drawn) [Example 2, 5,5-difluoro-1-(4-fluoro-3-(fluoromethyl)phenyl)-3-(trifluoromethyl)-4,5,6,7-tetrahydro-1H-indol-4-ol] showed an IC50 of 8.3 nM.
As to `N#Cc1ccc(-n2cc(C(F)(F)F)c3c2CCC(F)(F)[C@H]3O)cc1C(F)F` [Example 3, (S)-4-(5,5-difluoro-4-hydroxyl-3-(trifluoromethyl)-4,5,6,7-tetrahydro-1H-indol-1-yl)-2-(difluoromethyl)benzonitrile], the half-maximal inhibitory concentration (IC50) was found to be 3 nM.
The same measure, in the same setting: the same measure for `N#Cc1cc(-n2cc(S(=O)(=O)C(F)F)c3c2CCC(F)(F)[C@H]3O)ccc1F` [Example 4, (S)-5-(3-((difluoromethyl)sulfonyl)-5,5-difluoro-4-hydroxyl-4,5,6,7-tetrahydro-1H-indol-1-yl)-2-fluorobenzonitrile]: 98 nM.
With `CS(=O)(=O)c1cn(-c2ccc(F)c(C(F)F)c2)c2c1[C@H](O)C(F)(F)CC2` [Example 5, (S)-1-(3-(difluoromethyl)-4-fluorophenyl)-5,5-difluoro-3-(methylsulfonyl)-4,5,6,7-tetrahydro-1H-indol-4-ol], the IC50 came out at 72 nM.
The same measure, in the same setting: in the case of `N#Cc1cc(-n2cc(C(F)(F)C(F)(F)F)c3c2CCC(F)(F)C3O)ccc1F` (stereo not drawn) [Example 9, 5-(5,5-difluoro-4-hydroxyl-3-(perfluoroethyl)-4,5,6,7-tetrahydro-1H-indol-1-yl)-2-fluorobenzonitrile] it was 47 nM; in that of `CCS(=O)(=O)c1cn(-c2ccc(F)c(C(F)(F)F)c2)c2c1[C@H](O)C(F)(F)CC2` [Example 16, (S)-3-(ethylsulfonyl)-5,5-difluoro-1-(4-fluoro-3-(trifluoromethyl)phenyl)-4,5,6,7-tetrahydro-1H-indol-4-ol], 537 nM; in that of `CS(=O)(=O)c1cn(-c2ccc(F)c(C(F)(F)F)c2)c2c1[C@H](O)C(F)(F)CC2` [Example 20, (S)-5,5-difluoro-1-(4-fluoro-3-(trifluoromethyl)phenyl)-3-(methylsulfonyl)-4,5,6,7-tetrahydro-1H-indol-4-ol], 39 nM.
Still for that read-out and setting: the same measure for `O=S(=O)(c1cn(-c2ccc(F)c(C(F)(F)F)c2)c2c1[C@H](O)C(F)(F)CC2)C(F)F` [Example 21, (S)-3-((difluoromethyl)sulfonyl)-5,5-difluoro-1-(4-fluoro-3-(trifluoromethyl)phenyl)-4,5,6,7-tetrahydro-1H-indol-4-ol]: 12 nM; for `N#Cc1cc(-n2c(F)c(S(=O)(=O)C(F)F)c3c2CCC(F)(F)[C@H]3O)ccc1F` [Example 22, (S)-5-(3-((difluoromethyl)sulfonyl)-2,5,5-trifluoroether-4-hydroxyl-4,5,6,7-tetrahydro-1H-indol-1-yl)-2-fluorobenzonitrile]: 86 nM.
Same read-out and setting: in the case of `CS(=O)(=O)c1cn(-c2ccc(F)c(Cl)c2)c2c1C(O)C(F)(F)CC2` (stereo not drawn) [Example 24, 1-(3-chloro-4-fluorophenyl)-5,5-difluoro-3-(methylsulfonyl)-4,5,6,7-tetrahydro-1H-indol-4-ol] it was 72 nM; in that of `O=S(=O)(c1cn(-c2ccc(F)c(Cl)c2)c2c1C(O)C(F)(F)CC2)C(F)F` (stereo not drawn) [Example 25, 1-(3-chloro-4-fluorophenyl)-3-((difluoromethyl)sulfonyl)-5,5-difluoro-4,5,6,7-tetrahydro-1H-indol-4-ol], 63 nM.
In the case of `O=S(=O)(c1cn(-c2ccc(F)c(C(F)F)c2)c2c1[C@@H](O)C(F)(F)CC2)C(F)F` [Example 26, (R)-1-(3-(difluoromethyl)-4-fluorophenyl)-3-((difluoromethyl)sulfonyl)-5,5-difluoro-4,5,6,7-tetrahydro-1H-indol-4-ol], inhibition was half-maximal at 628 nM (IC50). This IC50 lies about 10-fold higher than the previous one.
On the same count and under the same terms, in the case of `N#Cc1cc(-n2cc(S(=O)(=O)C(F)F)c3c2CCC(F)(F)[C@H]3O)ccc1Cl` [Example 28, (S)-2-chloro-5-(3-((difluoromethyl)sulfonyl)-5,5-difluoro-4-hydroxyl-4,5,6,7-tetrahydro-1H-indol-1-yl)benzonitrile] it was 118 nM; in that of `CS(=O)(=O)c1cn(-c2ccc(C#N)c(C(F)F)c2)c2c1[C@H](O)C(F)(F)CC2` [Example 29, (S)-4-(5,5-difluoro-4-hydroxyl-3-(methylsulfonyl)-4,5,6,7-tetrahydro-1H-indol-1-yl)-2-(difluoromethyl)benzonitrile], 174 nM; in that of `O=S(=O)(CF)c1cn(-c2ccc(F)c(C(F)(F)F)c2)c2c1[C@H](O)C(F)(F)CC2` [Example 30, (S)-5,5-difluoro-1-(4-fluoro-3-(trifluoromethyl)phenyl)-3-((fluoromethyl)sulfonyl)-4,5,6,7-tetrahydro-1H-indol-4-ol], 45 nM.
Take `N#Cc1ccc(-n2cc(S(=O)(=O)C(F)(F)F)c3c2CCC(F)(F)[C@H]3O)cc1C(F)(F)F` [Example 31, (S)-4-(5,5-difluoro-4-hydroxyl-3-((trifluoromethyl)sulfonyl)-4,5,6,7-tetrahydro-1H-indol-1-yl)-2-(trifluoromethyl)benzonitrile]: the IC50 came to 21 nM.
On the same count and under the same terms, in the case of `N#Cc1ccc(-n2cc(S(=O)(=O)CF)c3c2CCC(F)(F)[C@H]3O)cc1C(F)(F)F` [Example 36, (S)-4-(5,5-difluoro-3-((fluoromethyl)sulfonyl)-4-hydroxyl-4,5,6,7-tetrahydro-1H-indol-1-yl)-2-(trifluoromethyl) benzonitrile] it was 108 nM; in that of `N#Cc1ccc(-n2cc(S(=O)(=O)C(F)F)c3c2CCC(F)(F)[C@H]3O)cc1C#N` [Example 39, (S)-4-(3-((difluoromethyl)sulfonyl)-5,5-difluoro-4-hydroxyl-4,5,6,7-tetrahydro-1H-indol-1-yl)phthalonitrile], 140 nM.

The experiment is the same for the next values; noted with them: Homo sapiens, 786-0; 786-O cells, 24 h, VEGFA in culture supernatant by ELISA; class symbols.
As for `N#Cc1cc(-n2cc(C(F)(F)F)c3c2CCC(F)(F)C3O)cc(F)c1F` (stereo not drawn) [Example 1, 5-(5,5-difluoro-4-hydroxyl-3-(trifluoromethyl)-4,5,6,7-tetrahydro-1H-indol-1-yl)-2,3-difluorobenzonitrile], the IC50 is ≤ 500 nM.
With `N#Cc1cc(-n2cc(S(=O)(=O)C(F)(F)F)c3c2CCC(F)(F)[C@H]3O)ccc1F` [Example 10, (S)-5-(5,5-difluoro-4-hydroxyl-3-((trifluoromethyl)sulfonyl)-4,5,6,7-tetrahydro-1H-indol-1-yl)-2-fluorobenzonitrile], the IC50 was ≤ 500 nM.
The same measure, in the same setting: in the case of `N#CCS(=O)(=O)c1cn(-c2ccc(F)c(C(F)(F)F)c2)c2c1[C@H](O)C(F)(F)CC2` [Example 13, (S)-2-((5,5-difluoro-1-(4-fluoro-3-(trifluoromethyl)phenyl)-4-hydroxyl-4,5,6,7-tetrahydro-1H-indol-3-yl)sulfonyl)acetonitrile] it was 500 to 1500 nM.
Same read-out and setting: in the case of `N#Cc1cc(-n2cc(C(F)(F)C(N)=O)c3c2CCC(F)(F)C3O)ccc1F` (stereo not drawn) [Example 15, 2-(1-(3-cyano-4-fluorophenyl)-5,5-difluoro-4-hydroxyl-4,5,6,7-tetrahydro-1H-indol-3-yl)-2,2-difluoroacetamide] it was 500 to 1500 nM.
The same measure, in the same setting: the same measure for `N#Cc1cc(-n2cc(C(F)(F)C#N)c3c2CCC(F)(F)C3O)ccc1F` (stereo not drawn) [Example 17, 5-(3-(cyanodifluoromethyl)-5,5-difluoro-4-hydroxyl-4,5,6,7-tetrahydro-1H-indol-1-yl)-2-fluorobenzonitrile]: ≤ 500 nM; for `N#CCS(=O)(=O)c1cn(-c2ccc(F)c(C(F)F)c2)c2c1[C@H](O)C(F)(F)CC2` [Example 19, (S)-2-((1-(3-(difluoromethyl)-4-fluorophenyl)-5,5-difluoro-4-hydroxyl-4,5,6,7-tetrahydro-1H-indol-3-yl)sulfonyl)acetonitrile]: 500 to 1500 nM; for `CS(=O)(=O)c1cn(-c2ccc(Cl)c(C#N)c2)c2c1[C@H](O)C(F)(F)CC2` [Example 27, (S)-2-chloro-5-(5,5-difluoro-4-hydroxyl-3-(methylsulfonyl)-4,5,6,7-tetrahydro-1H-indol-1-yl)benzonitrile]: ≤ 500 nM.
On to `N#Cc1ccc(-n2cc(S(=O)(=O)C(F)F)c3c2CCC(F)(F)[C@H]3O)cc1C(F)(F)F` [Example 34, (S)-4-(3-((difluoromethyl)sulfonyl)-5,5-difluoro-4-hydroxyl-4,5,6,7-tetrahydro-1H-indol-1-yl)-2-(trifluoromethyl)benzonitrile], for which the 50% inhibitory concentration (IC50) is ≤ 500 nM.
Still for that read-out and setting: in the case of `O=S(=O)(CF)c1cn(-c2ccc(F)c(Cl)c2)c2c1[C@H](O)C(F)(F)CC2` [Example 37, (S)-1-(3-chloro-4-fluorophenyl)-5,5-difluoro-3-((fluoromethyl)sulfonyl)-4,5,6,7-tetrahydro-1H-indol-4-ol] it was ≤ 500 nM; in that of `N#Cc1cc(-n2cc(S(=O)(=O)C(F)(F)F)c3c2CCC(F)(F)[C@H]3O)ccc1Cl` [Example 40, (S)-2-chloro-5-(5,5-difluoro-4-hydroxyl-3-((trifluoromethyl)sulfonyl)-4,5,6,7-tetrahydro-1H-indol-1-yl)benzonitrile], ≤ 500 nM; in that of `N#Cc1ccc(-n2cc(C(F)(F)C(F)(F)F)c3c2CCC(F)(F)C3O)cc1C(F)F` (stereo not drawn) [Example 41, 4-(5,5-difluoro-4-hydroxyl-3-(perfluoroethyl)-4,5,6,7-tetrahydro-1H-indol-1-yl)-2-(difluoromethyl)benzonitrile], ≤ 500 nM.
